Measured values: PubChem BioAssay (NCI)
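Test compounds were applied to cells in 96-well plates for 48 hours at 5 doses. Here, GI50 denotes the concentration required for 50% inhibition of growth. TGI: concentration producing complete growth inhibition.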

What was measured:
Assay in all cases: NCI anticancer screen, dose series, 48 h
[1] = tested on: A498 renal
[2] = tested on: A549 NSCLC
[3] = tested on: ACHN renal
[4] = tested on: BT-549 breast
[5] = tested on: CAKI-1 renal
[6] = tested on: CCRF-CEM leukemia
[7] = tested on: COLO 205 colon
[8] = tested on: DU-145 prostate
[9] = tested on: EKVX NSCLC
[10] = tested on: HCC-2998 colon
[11] = tested on: HCT-116 colon
[12] = tested on: HCT-15 colon
[13] = tested on: HL-60(TB) leukemia
[14] = tested on: HOP-62 NSCLC
[15] = tested on: HOP-92 NSCLC
[16] = tested on: HS 578T breast
[17] = tested on: HT29 colon
[18] = tested on: IGROV1 ovarian
[19] = tested on: K-562 leukemia
[20] = tested on: KM12 colon
[21] = tested on: LOX IMVI melanoma
[22] = tested on: MALME-3M melanoma
[23] = tested on: MCF7 breast
[24] = tested on: MDA-MB-231 breast
[25] = tested on: MDA-MB-435
[26] = tested on: MOLT-4 leukemia
[27] = tested on: NCI-H226 lung
[28] = tested on: NCI-H23 lung
[29] = tested on: NCI-H460 lung
[30] = tested on: NCI-H522 lung
[31] = tested on: NCI/ADR-RES ovarian
[32] = tested on: OVCAR-3 ovarian
[33] = tested on: OVCAR-4 ovarian
[34] = tested on: OVCAR-5 ovarian
[35] = tested on: OVCAR-8 ovarian
[36] = tested on: PC-3 prostate
[37] = tested on: RPMI-8226 leukemia
[38] = tested on: RXF 393 renal
[39] = tested on: SF-268 CNS
[40] = tested on: SF-295 CNS
[41] = tested on: SK-MEL-2 melanoma
[42] = tested on: SK-MEL-28 melanoma
[43] = tested on: SK-MEL-5 melanoma
[44] = tested on: SK-OV-3 ovarian
[45] = tested on: SN12C renal
[46] = tested on: SNB-19 CNS
[47] = tested on: SNB-75 CNS
[48] = tested on: SR leukemia
[49] = tested on: SW-620 colon
[50] = tested on: T-47D breast
[51] = tested on: TK-10 renal
[52] = tested on: U251 CNS
[53] = tested on: UACC-257 melanoma
[54] = tested on: UACC-62 melanoma
[55] = tested on: UO-31 renal

`COc1cc2c(/C=C3/C(=O)Nc4c3ccc3ccccc43)c(Cl)n(C)c2cc1C` was tested, and the GI50 [1] was 666 nM, the TGI [1] was 3040 nM and the GI50 [2] was less than 19.3 nM. The TGI [2] was 2010 nM, the GI50 [3] was 400 nM and the TGI [3] was 19500 nM. For the same compound, the GI50 [4] was less than 10 nM, the GI50 [5] was less than 22.4 nM and the TGI [5] was 12600 nM. It also gave a GI50 [6] of 73.1 nM, a TGI [6] of 1060 nM and a GI50 [7] of 74.6 nM. For the same compound, the TGI [7] was 180 nM, the GI50 [8] was 235 nM and the TGI [8] was 599 nM. For the same compound, the GI50 [9] was 275 nM, the TGI [9] was 6290 nM and the GI50 [10] was less than 47 nM. The GI50 [11] was less than 44 nM, the GI50 [12] was 899 nM and the TGI [12] was 12600 nM. The GI50 [13] was 59.7 nM, the TGI [13] was greater than 100000 nM and the GI50 [14] was 680 nM. It also gave a TGI [14] of 16000 nM, a GI50 [15] of 705 nM and a TGI [15] of 22400 nM. It also gave a GI50 [16] of 358 nM, a TGI [16] of 1890 nM and a GI50 [17] of less than 19.6 nM. The GI50 [18] was 42.4 nM, the TGI [18] was 16100 nM and the GI50 [19] was 194 nM. For the same compound, the TGI [19] was 21500 nM, the GI50 [20] was less than 15.6 nM and the TGI [20] was less than 30.3 nM. It also gave a GI50 [21] of 137 nM, a TGI [21] of 13700 nM and a GI50 [22] of 156 nM. The TGI [22] was 19400 nM, the GI50 [23] was less than 17.9 nM and the GI50 [24] was 53.9 nM. The TGI [24] was 882 nM, the GI50 [25] was less than 13.2 nM and the TGI [25] was less than 19.7 nM. For the same compound, the GI50 [26] was less than 21.6 nM, the TGI [26] was 17300 nM and the GI50 [27] was 1270 nM. The TGI [27] was 24500 nM, the TGI [28] was 14700 nM and the GI50 [29] was less than 18.9 nM. The TGI [29] was greater than 28000 nM, the GI50 [30] was less than 10 nM and the TGI [30] was less than 12.6 nM. For the same compound, the GI50 [31] was 24.8 nM, the TGI [31] was 62.9 nM and the GI50 [32] was less than 26.3 nM. The GI50 [33] was 1520 nM, the TGI [33] was 11600 nM and the TGI [34] was 10500 nM. For the same compound, the GI50 [35] was less than 10 nM, the GI50 [36] was 132 nM and the TGI [36] was 3570 nM. The GI50 [37] was less than 20.4 nM, the GI50 [38] was 20.3 nM and the TGI [38] was 2980 nM. For the same compound, the GI50 [39] was less than 22.3 nM, the TGI [39] was 18700 nM and the GI50 [40] was less than 15.4 nM. It also gave a TGI [40] of less than 29.1 nM, a GI50 [41] of less than 14.7 nM and a TGI [41] of 10100 nM. The TGI [42] was greater than 47700 nM, the GI50 [43] was 636 nM and the TGI [43] was 1300 nM. For the same compound, the GI50 [44] was 177 nM, the TGI [44] was 13000 nM and the GI50 [45] was 96.2 nM. For the same compound, the TGI [45] was 3510 nM, the GI50 [46] was 104 nM and the TGI [46] was 8450 nM. It also gave a TGI [47] of 905 nM, a GI50 [48] of 38.4 nM and a TGI [48] of 22200 nM. The GI50 [49] was 1110 nM, the TGI [49] was 11800 nM and the GI50 [50] was 16900 nM. It also gave a TGI [50] greater than 100000 nM, a GI50 [51] of 378 nM and a TGI [51] of 17300 nM. The GI50 [52] was 1260 nM, the TGI [52] was 12800 nM and the GI50 [53] was less than 10 nM. The TGI [53] was 29300 nM, the GI50 [54] was 104 nM and the TGI [54] was 15400 nM. It also gave a GI50 [55] of less than 18.3 nM and a TGI [55] of 6170 nM.
